Experimental findings from patent publication US20040235733A1, “Methods and reagents for reducing polyglutamine toxicity” (priority 2003, published 2004) are described below.

The assay has as its target T1, CRM-1 export receptor (Mus musculus, UniProt Q6P5F9).
T1 construct: NIH-3T3 cells were transfected with the indicated GFP reporter constructs; endogenous in cells; host or cells: NIH-3T3
The experiment in a line: Leptomycin B Nuclear Export Signal Assay (GFP reporter localization by confocal microscopy). In kind it is cell-based. The note with it: NIH-3T3 cells, 24 hrs post-transfection, 200 nM Leptomycin B for 2 hrs. How it is done:
The Leptomycin B Nuclear Export Signal Assay used NIH-3T3 cells grown on glass coverslips (Fisher) and transfected using Lipofectamine 2000 according to the manufacturers protocol. Cells 24 hrs post-transfection were treated with 200 nM Leptomycin B (Sigma) or DMSO (Mock) for 2 hrs. Cells were fixed with 3% PFA and mounted using ProLong (Molecular Probes) mounting medium. Confocal microscopy was performed on a Zeiss LSM 510 confocal system using an Axiovert 100 M microscope and a Plan/Apochromat 100×/Oil objective.

Entries after “also recorded” stand apart in the source; their conditions may differ.

T1 sequence (Q6P5F9 whole entry): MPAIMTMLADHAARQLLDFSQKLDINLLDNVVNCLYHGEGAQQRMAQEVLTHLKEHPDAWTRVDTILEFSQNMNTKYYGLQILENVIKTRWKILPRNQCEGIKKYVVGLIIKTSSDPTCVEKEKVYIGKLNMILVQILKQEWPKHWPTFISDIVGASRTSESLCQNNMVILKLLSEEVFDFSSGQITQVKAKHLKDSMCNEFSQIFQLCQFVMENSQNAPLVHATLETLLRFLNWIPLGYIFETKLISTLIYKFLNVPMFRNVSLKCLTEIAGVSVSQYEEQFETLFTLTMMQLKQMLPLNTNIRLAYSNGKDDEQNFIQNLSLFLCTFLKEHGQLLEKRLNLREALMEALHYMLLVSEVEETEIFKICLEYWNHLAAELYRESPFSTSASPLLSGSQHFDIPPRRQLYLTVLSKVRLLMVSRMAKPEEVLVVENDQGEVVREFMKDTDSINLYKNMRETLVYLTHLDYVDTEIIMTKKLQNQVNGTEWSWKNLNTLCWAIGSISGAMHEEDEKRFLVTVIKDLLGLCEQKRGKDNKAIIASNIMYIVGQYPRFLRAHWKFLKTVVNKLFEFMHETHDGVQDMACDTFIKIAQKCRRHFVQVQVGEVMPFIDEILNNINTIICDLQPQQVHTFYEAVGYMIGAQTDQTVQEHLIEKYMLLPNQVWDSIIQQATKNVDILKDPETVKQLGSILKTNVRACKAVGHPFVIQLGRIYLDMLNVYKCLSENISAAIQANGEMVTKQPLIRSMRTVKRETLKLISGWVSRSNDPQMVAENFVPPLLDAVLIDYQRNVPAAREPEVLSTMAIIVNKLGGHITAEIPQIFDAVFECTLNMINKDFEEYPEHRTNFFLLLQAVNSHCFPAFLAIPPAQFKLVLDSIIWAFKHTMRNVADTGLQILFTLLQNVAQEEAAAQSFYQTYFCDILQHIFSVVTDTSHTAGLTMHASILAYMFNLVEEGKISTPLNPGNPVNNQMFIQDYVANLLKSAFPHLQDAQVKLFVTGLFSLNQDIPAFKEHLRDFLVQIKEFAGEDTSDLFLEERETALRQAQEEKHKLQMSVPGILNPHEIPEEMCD

`CCC(=C/[C@H](C)C/C=C/C(C)=C/[C@@H](C)C(=O)[C@@H](C)[C@H](O)[C@@H](C)C/C(C)=C/C(=O)O)/C=C/[C@@H]1OC(=O)C=C[C@@H]1C` [LMB, Leptomycin B]: the “effect on localization of GFP or NLS-GFP” value is “unaffected”, the “effect on nuclear exclusion (cytoplasmic localization) of Htt 1-17-NLS-GFP” value was “unaffected; also recorded: no effect” and the “effect on nuclear exclusion of control NES-GFP” value was “quite sensitive; also recorded: efficiently reversed”.
